Values of other authors as cited in US20240164377A1, “LOW VOLATILITY PROMOTING WATER CONDITIONING ADJUVANTS” (Adjuvants Unlimited LLC, priority 2014, published 2024).

| Volatility relative to the diglycolamine salt (reported, see WO 2011/019652 A2) | Compound | Volatility compared with another salt (in words) (background statement) |
| --- | --- | --- |
|  | COc1c(Cl)ccc(Cl)c1C(=O)O.NCCOCCO [diglycolamine salt of dicamba] | lower volatility than the dimethylamine salt of dicamba |
| about 100 times | COc1c(Cl)ccc(Cl)c1C(=O)O [free acid form of dicamba, 3,6-dichloro-2-methoxybenzoic acid] |  |
